Assay [1] concerns rat anti-glomerular basement membrane (GBM) antibody induced nephritis model. Kind of assay: rat anti-GBM antibody induced nephritis model (urinary protein excretion, plasma total cholesterol). Type of assay: in vivo. The note with it: disease animal model showing nephrotic syndrome-like symptoms. Here is the method:
Using a rat anti-GBM antibody induced nephritis model, the suppressive effect of Compound A on an increase in urinary protein excretion and plasma total cholesterol concentration so was evaluated. The evaluation was performed by reference to non-patent document 2. As the experiment animal, 8-week-old female WKY/NCrlCrlj rat (CHARLES RIVER LABORATORIES JAPAN, INC.) was used. Monohydrochloride of Compound A was dissolved in 0.5% (w/v) methylcellulose (MC) to prepare 2 mg/mL and 6 mg/mL Compound A solutions. Ciclosporin (Wako Pure Chemical Industries, Ltd., 0.5% (w/v)) was suspended in MC to prepare a 2 mg/mL Ciclosporin suspension. […]
As for urine, the urine volume was measured, after which the protein concentration in the centrifugal supernatant was measured by absorbance at wavelength 600 nm/sub-wavelength 660 nm using a total protein assay kit (micro TP-Test Wako, Wako Pure Chemical Industries, Ltd.). The urinary protein excretion (mg/day) was calculated from the urine volume and the protein concentration.
As for blood, the total cholesterol concentration (mg/dL) in plasma obtained by centrifugation was measured using a biochemical automatic analysis apparatus (Hitachi automatic analysis apparatus 7180, Hitachi High-Technologies).
The mean of the urinary protein excretion and the plasma total cholesterol concentration was calculated.

In assay [2] the target is T1, inducible T cell kinase (ITK) (Homo sapiens, UniProt Q08881).
T1 sequence (Q08881 1-620): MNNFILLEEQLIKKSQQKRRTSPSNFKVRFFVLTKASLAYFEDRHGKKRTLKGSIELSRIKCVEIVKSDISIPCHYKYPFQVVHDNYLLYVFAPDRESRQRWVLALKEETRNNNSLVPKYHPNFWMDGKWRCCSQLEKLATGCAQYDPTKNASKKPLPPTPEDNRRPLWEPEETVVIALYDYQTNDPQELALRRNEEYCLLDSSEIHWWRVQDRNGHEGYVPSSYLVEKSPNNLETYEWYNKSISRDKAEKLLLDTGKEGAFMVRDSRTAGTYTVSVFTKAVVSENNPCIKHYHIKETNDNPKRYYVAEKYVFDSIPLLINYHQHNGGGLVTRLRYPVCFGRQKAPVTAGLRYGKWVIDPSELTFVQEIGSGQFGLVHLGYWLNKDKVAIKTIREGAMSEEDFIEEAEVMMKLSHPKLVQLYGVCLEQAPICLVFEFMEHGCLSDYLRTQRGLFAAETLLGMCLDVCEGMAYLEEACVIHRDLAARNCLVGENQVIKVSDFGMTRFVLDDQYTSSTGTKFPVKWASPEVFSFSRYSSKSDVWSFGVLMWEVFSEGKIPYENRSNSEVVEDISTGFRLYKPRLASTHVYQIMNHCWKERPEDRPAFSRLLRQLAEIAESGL
The note with it: described in patent document 1 (WO 2011/065402); cited from earlier work.

`C[C@@H](C(=O)N(C)c1ccc2cc(-c3n[nH]c4c3CCC(C)(C)C4)[nH]c2c1)N1CCOCC1` [Compound A, N-[2-(6,6-dimethyl-4,5,6,7-tetrahydro-1H-indazol-3-yl)-1H-indol-6-yl]-N-methyl-(2S)-2-(morpholin-4-yl)propanamide]: in assay [1], the “severity of the disease” value is “significantly reduce severity of the disease”. The “inducible T cell kinase (ITK) inhibitory activity” value in assay [2] is recorded as “has an inducible T cell kinase (ITK) inhibitory activity”.

(Values after patent publication US12011448B2, “Therapeutic or preventing agent for nephrotic syndrome including indole compound” (Japan Tobacco Inc., priority 2018, dated 2024).)
